Experimental data as given in patent publication US7361279B2, “Removing metals from solution using metal binding compounds and sorbents therefor” (priority 2002, dated 2008).
Values joined by “and” are separate entries in the source; they are usually repeats but may differ in a detail not shown here. Identical values can stand only once.

Tests used:
[1] = Differential pulse polarography, stability constants (DeFord-Hume, Lingane), Pb(II); assay type: binding
Text: (§1) Such an approach was applied to estimate the strength of metal-benzotriazole interactions in acidic solutions. The current that flows during a single life time of a dropping mercury electrode (DME) is held at a given potential in a polarograph and is described by the Ilkovic Equation: Id=708nDo^1/2C0*m^2/3t^1/6 (2)
(§2) In their classic report, Deford and Hume (1951) defined a series of functions, where the change in reduction potential of a target ion, measured with a polarograph, can be directely related to its complexation stability by the progressive addition of a known ligand.
(§3) Stability constants are obtained as follows where F0(x)=ΣβnCL^n=β0β1CL+β2CL^2+ . . . +βnCL^n (7)
(§4) In order to obtain β1, . . . , βn, a widely-accepted graphical extrapolation method derived by Leden (1941) was applied. Sequential plots of equation (7) (Fn(X) vs. C) yielded a family of curves, through which coordination chemistry between metals and benzotriazoles was determined.
(§5) The maximum coordination number was also independently determined using the Lingane method reported by Crow (1969) with a plot of ΔE1/2 Vs. Log Cx relationship, using the Lingane equation: […]
(§6) βmxj (the overall stability constant), and j (maximum number of ligands coordinated with a metal through a reversible series of complexing interactions), were determined for Cu(II), Pb(II) and Zn(II) interactions with benzotriazoles. The present application reports the development and use of polarographic methods for quantification of benzotriazole complexes to study their potential for immobilizing metals on activated carbon surfaces.
(§7) Polarographic and voltammetric measurements were performed with a CV-50W Voltametric analyzer fitted with a controlled growth mercury electrode; this multimode electrode was used in a static mercury drop electrode (SMDE) mode. The mercury electrode was multiplexed using BAS commercial software (Bioanalytical Systems, Inc., Lafayette, Ind., USA) a platinum auxiliary electrode and an Ag/AgCl (3 M KCl) reference electrode. All potentials were normalized to the Ag/AgCl electrode. A system scan rate of 5 mV s^−1 was used with a drop time of 1 sec. For DPP, the pulse amplitude was 100 mV with a sample width of 17 msec. A repeatable drop size was produced using a borosilicate capillary tube. The solenoid activation setting was 100 ms for all runs.
(§8) For the stability constant calculations, a 15 ml supporting electrolyte solution was pipetted into the voltammetric cell and the metal salt addition was adjusted to yield a final concentration of approximately 10^−5 M. The ligand (5-methybenzotriazole) was then added in increasing concentration from 0 to 1×10^−2 M. Polarograms were constructed, and the shift in the half wave potential was recorded after each ligand addition. All DPP measurements were made in triplicate.

[2] = Differential pulse polarography, stability constants (DeFord-Hume, Lingane), Cu(II); assay type: binding
Text: as §1, §2, §3, §4, §5, §6, §7, §8

[3] = Differential pulse polarography, Zn(II) complexation; assay type: binding; details: DPP, increasing MeBT
Text: as §1, §2, §6
Polarographic and voltammetric measurements were performed with a CV-50W Voltametric analyzer fitted with a controlled growth mercury electrode; this multimode electrode was used in a static mercury drop electrode (SMDE) mode. […]

[4] = Batch microcosm immobilization of lead on Calgon MRX-P GAC
Procedure: (§9) Experiments were executed to bracket a range of MeBT and carbon concentrations near the sorptive capacity of calgon MRX, as judged by Freundlich isotherm modeling (c.a. 49 mg/g). Lead, copper, and zinc were chosen as models to study the complexation behavior and sorptive interactions when MeBT is bound to different transition metals. Different ratios of ligand (MeBT) and metal were chosen based on the coordination stichiometry of MeBT with each metal. The ionic strength was held constant at 0.0 1M, and H2SO4 and HNO3 were used as background electrolytes. Lead, copper and zinc concentrations of 10 mg/L and carbon concentrations of 5 g/L were employed for batch microcosm assays.
(§10) Microcosms used for benzotriazole-metal immobilization experiments on GAC. Microcosms consisted of 250 ml Erlenmeyer flasks containing 75 mls of test solution with and without activated carbon. 75 milliliter aliquots of MeBT solution containing known GAC masses were placed in 250 ml Erlenmeyer flask. The samples were allowed to equilibrate on a shaker table at 15° C. for no more than 24 hours. Following equilibration, the samples were centrifuged and the supernatant was analyzed for both metal and 5-MeBT content. Metal-ligand molar ratios of 1:0, 1:2, 1:10, and 1:30 were employed. Identical experiments were conducted for each metal in the absence of GAC for the same metal: ligand ratios to determine any possible metal removal effects associated with precipitation. The resulting aqueous metal concentrations were measured by DPP and confirmed by inductive coupled plasma/atomic emission spectroscopy (ARL 3410 ICP/AES) in an EPA certified laboratory in the Geology department at University of Colorado. 5-MeBT was measured by both DPP and HPLC methods.

[5] = Batch microcosm immobilization of copper on Calgon MRX-P GAC
Procedure: as §9, §10

[6] = Batch microcosm immobilization of zinc on Calgon MRX-P GAC; details: pH 3, ligand to metal ratio 30:1, carbon 5 g/L
Procedure: as §9
as §10, with “The samples were allowed to equilibrate on a shaker table at 15° C. for no more than 24 hours.” left out, “Metal-ligand molar ratios of 1:0, 1:2, 1:10, and 1:30 were employed. Identical experiments were conducted for each metal in the absence of GAC for the same metal: ligand ratios to determine any possible metal removal effects associated with precipitation.” left out

[7] = Removal of benzotriazoles from solution by granular activated carbon; assay type: physicochemical; details: for soluble 5-MeBT content after exposure to GAC (HPLC): after 24 hours
Procedure: A spectra-Physics high performance liquid chromatograph (HPLC) fitted with a UV detector (λ=254 nm) was used. 5-MeBT analysis was performed isocratically using two Zorbax Rx-C8 4.6×250 mm columns in series (MacMod Analytical, Inc., Chadds Ford, Pa., USA). The eluent consisted of a phosphate buffer mixed in a 70:30 ratio with HPLC grade acetylnitrile at a flow rate of 1.5 ml/minute with a sample injection volume of 200 μl. All samples were centrifuged at 10,000×g for 5 minutes prior to analysis.
Using simple time-series analysis of soluble methylbenzotriazole, the minimum time required for complete sorption was determined. Each experiment reached equilibrium before 48 hours, using a criteria of no more than 4% change in aqueous concentration during the observation period. Mass balances were used to determine the equilibrium portioning of MeBT in the microcosms system. Aqueous concentration data was used to calculate the amount of MeBT associated with GAC by differences. The equilibrium partioning data were then inverted and log-transformed, and tested against widely-accepted sorption models for “best-fit”.
A spectra-Physics high performance liquid chromatography (HPLC) with UV-Vis Detector (λ=254 nm) was used. Methylbenzotriazole analysis was performed isocratically using two Zorbax Rx-C8 4.6×250 mm columns in series (MacMod Analytical, Inc., Chadds Ford, Pa., USA). The eluent consisted of a phosphate buffer mixed in a 70:30 ratio with HPLC grade acetylnitrile at a flow rate of 1.5 ml/minute with a sample injection volume of 200 μl. All samples were centrifuged at 10,000×g for 5 minutes prior to analysis.
as §10

[8] = Desorption of MeBT from GAC surfaces; assay type: physicochemical; details: 30 day period, metal- and benzotriazole-free solutions, pH 2-5, varying ionic strength
Procedure: After sorption, GAC was removed, washed with water, and then transferred to a clean electrolyte solution at different pH (pH 2-4) to investigate the stability of the metal: 5-MeBT complexes once immobilized on activated carbon. After 24 hours of equilibration and at time intervals 0, 7, and 30 days, 5 mls of each sample was centrifuged and analyzed for both metal and 5-MeBT content using both ICP/EAS and HPLC.
The potential for the desorption of MeBT from GAC surfaces was monitored over a 30 day period.

[9] = cited from earlier work
[10] = Pb(II) 3 × 10^−5 M, 5-MeBT 0-7 × 10^−3 M
[11] = [Pb(II)]=3×10^−5M, pH=3, T=25° C.
[12] = Cu(II) 5 × 10^−5 M, 5-MeBT 0-3 × 10^−3 M
[13] = [Cu(II)]=5×10^−5M, pH=2.5, T=25° C.

Cc1ccc2[nH]nnc2c1 [5-MeBT, 5-methylbenzotriazole]
DeFord-Hume method Log β1 [1, 10]: 3.3
Lingane method Log βn [1, 10]: 3.8
Maximum coordination number (ligand: metal ratio) [1, 10]: 1
β1 from intercept of F1(X) vs. [MeBT] [1, 11]: ~1.8×10^3
β1 from slope of Fo(X) vs. [MeBT] [1, 11]: ~2.2×10^3
β (copper complexing agent) [2]: ~10^15
DeFord-Hume method Log β1 [2, 12]: 12.8
DeFord-Hume method Log β2 [2, 12]: 15.8
Lingane method Log βn [2, 12]: 15.8
Maximum coordination number (ligand: metal ratio) [2, 12]: 2
β1 (first complex stability) from intercept of F1(X) [2, 13]: ~6×10^12
β2 (overall stability constant) from slope of F1(X) [2, 13]: ~7×10^15
β2 from intercept of F2(X) vs. [5-MeBT] [2, 13]: 7×10^15
potential shift on addition of MeBT to zinc-containing solutions [3]: no potential shifts
potential shift on addition of MeBT to zinc-containing solutions ([3]; listed as methybenzotriazole): no significant potential shifts
share of lead sequestered on GAC associated with an MeBT precipitate [4]: approximately 25%
share of lead sequestered on GAC associated with soluble MeBT complex [4]: ~75%
Pb(II) removal in the absence of GAC (precipitation) ([4]; pH 2, MeBT to Pb(II) molar ratio 2): approximately 2.5%
Pb(II) removal in the absence of GAC (precipitation) ([4]; pH 2, MeBT to Pb(II) molar ratio 10): ~6%
Pb(II) removal in the absence of GAC (precipitation) ([4]; pH 2, MeBT to Pb(II) molar ratio 30): ~12%
precipitation-associated Pb(II) removal ([4]; pH 3, absence of GAC): about 20%
Pb(II) removal efficiency, maximum ([4]; pH 3, ligand to metal ratio approximately 30:1, carbon 5 g/L): 82%
share of copper sequestered on GAC associated with an MeBT precipitate ([5]; pH 2): almost none
Cu(II) removal efficiency, maximum ([5]; pH 2, ligand to metal ratio 30:1, carbon 5 g/L): 13%
share of copper removal associated with an MeBT precipitate ([5]; pH 3): approximately 18%
Cu(II) removal ([5]; pH 3, MeBT to Cu(II) molar ratios of 2, 10 and 30): 32-35%
share of copper removal associated with an MeBT precipitate ([5]; pH 4): ~40%
Zn(II) removal efficiency, maximum [6]: 9%
time to sorption equilibrium ([7]; 1% GAC w/vol, 10-2000 mg/L MeBT, no more than 4% change criterion): < 48 h
affinity for granular activated carbon compared with benzene ([7]; Calgon MRX 10×30 mesh, pH 2 to 5): approximately the same as that observed for benzene
soluble 5-MeBT content after exposure to GAC (HPLC) ([7]; copper microcosms): less than 0.25 mg/L
soluble 5-MeBT content after exposure to GAC (HPLC) ([7]; lead microcosms): less than 0.25 mg/L
soluble 5-MeBT content after exposure to GAC (HPLC) ([7]; zinc microcosms): less than 0.25 mg/L
desorption of 5-MeBT from saturated Calgon MRX-P [8]: did not liberate measurable amounts
first pKa (dissociation) [9]: ~2 and 2
second pKa (dissociation) [9]: ~9
pKa ([9]; weak organic acid): approximately 8.8
